Measured values: publication PMC11101637, “Bioinformatics leading to conveniently accessible, helix enforcing, bicyclic ASX motif mimics (BAMMs)” (Nature Communications, 2024)
Numbered stars: 1 amine (or outer) side, 2 acyl side, 3 side chain; on linkers, the order of the positions; unused ones are H or OH. Bridge positions count the residues as written; N and C are the ends. Ends that are not written are not given here. Peptide text beside a SMILES is read from it. mXylylene = c1cc(C[*:1])cc(C[*:2])c1

Columns and labels:
circular dichroism = conditions: PBS; pH 7.4; 25 °C; 5-30 uM
[1] = CD spectroscopy: percent helicity and ellipticity ratio 222/208 nm; format: physicochemical; conditions: for % helicity: 5-30 μM peptide, three scans averaged, [θ]222/[θ]max
Description: Circular dichroism (CD) experiments
Concentrations of the stock solution were determined by […] absorption of Trp or 275 nm absorption of Tyr (and TMB, if present in peptides). Each sample was dissolved in 1x PBS (pH 7.4), 10% TFE/PBS or 20% TFE/PBS with the final concentration between 5 to 30 μM. CD spectra were acquired using circular dichroism spectrometer (Chirascan) equipped with a temperature controller using 1 mm cell at a scan speed of 0.5 nm/sec at indicated temperature. Each sample was scanned three times and the averaged spectrum was smoothed.
Calculation of percent helicity
For simplicity, ‘helicity’ or ‘helical’ in the following text all refers to α-type. For each peptide, mean residue ellipticities ([θ]/(c*n), c = concentration of the peptide, n = number of amino acids in the peptide) were used to calculate % helicity, which is an empirical indicator of peptide helicity. […] (n = number of amino acids in the peptide, T = 25.0 °C).

[2] = In vitro peptide stability in human serum; format: in vitro ADME; conditions: 25% male human serum diluted in RPMI medium, 150 μM peptide, 37 °C, serum pre-equilibrated 15 min, methanol precipitation, RP-HPLC 210 nm peak area relative to 0 h, LC-MS for products
Description: In vitro peptide stability in human serum[50]
Male human serum (H-4522) was obtained from Sigma Aldrich (Missouri, USA). […] The initial time is recorded as peptides were added. The mixture was incubated at 37 °C and an aliquot of 40 μL was removed at different time intervals. […] The supernatant was analyzed in analytical RP-HPLC to calculate the amount of tested peptides, and in LCMS to analyze degradation products. The eluted peptides were detected by absorbance at 210 nm and quantified by their peak areas relative to the initial peak areas (0 h).

[3] = Amide H-D exchange study (NMR), protection factors; format: physicochemical; conditions: for H/D exchange experiment, per-residue value (Fig 5i): amide H-D exchange by NMR
Description: Lyophilized samples of peptides LDLL 12-mer and bicyclo 12-mer from the above experiments were dissolved in 600 µL of D2O/ TFE-d3 mixture (4:1) to initialize the H-D exchange. The pH of the solution was confirmed. Spectra were recorded on a preshimmed Bruker AVANCE 500 MHz spectrometer. The recorded temperature was 33 °C. The intensity changes for each amide proton were determined by monitoring either the NH peaks on 1D spectra or the cross-peaks between NH and RH on 2D TOCSY spectra when overlapping was severe. The peak intensity data was fit into one phase exponential equation to get the exchange rate constants using GraphPad Prism 6.0 program. The rate constants were input into Englander lab’s spreadsheet (https://hx2.med.upenn.edu/download.html) to calculate protection factor and stabilization energy.

[4] = CD in PBS buffer (pH 7.4, 10 mM), 25.0 °C, 1 mm cell

Row | Compound | helicity (circular dichroism) [%] | % helicity [1, 4] [%] | other results
1 | Ac-IDAALLAAAKAAAAKAW-NH2 [IDLL] | 69 | 69 | 
2 | Ac-LDAAELAAAKAAAAKAW-NH2 [LDEL] | 52 | 52 | 
3 | Ac-LDAASLAAAKAAAAKAW-NH2 [LDSL] | 67 | 67 | 
4 | Ac-FDAALLAAAKAAAAKAW-NH2 [FDLL] | 53 | 53 | 
5 | C[C@H](NC(=O)[C@H](CCCCN)NC(=O)[C@H](C)NC(=O)[C@H](C)NC(=O)[C@H](C)NC(=O)[C@H](C)NC(=O)[C@@H]1CSCc2cccc(c2)CSC[C@H](NC(=O)[C@@H](N)Cc2c[nH]c3ccccc23)C(=O)N[C@@H](CC(=O)O)C(=O)N[C@@H](C)C(=O)N[C@@H](C)C(=O)N1)C(N)=O (H-WCDAACAAAAKA-NH2; linker 2-6 via mXylylene) | 32 |  | 
6 | Ac-QAEELLRALDQY-NH2 [2l] | 13 | 13 | ellipticity ratio 222/208 nm ([1]; CD in 10% TFE/PBS, 25 °C): 0.53; % helicity ([1]; CD in 10% TFE/PBS, 25 °C): 23%; ellipticity ratio 222/208 nm ([1]; CD in PBS, 25 °C): 0.27
7 | Ac-AAAAKAAAAKAAAAKAAAAKAW-NH2 [AAKA 22-mer] | 64 | 64 | 
8 | Ac-LDAALLAAAKAAAAKAW-NH2 [LDLL] | 93 | 93 | 
9 | CC[C@H](C)[C@H](NC(=O)[C@H](CC(N)=O)NC(=O)[C@H](CCCCN)NC(=O)[C@H](CSC)NC(=O)[C@H](CSC)NC(=O)[C@H](C)NC(=O)[C@H](C)NC(=O)[C@H](CC(=O)O)NC(=O)[C@@H](N)CSC)C(=O)N[C@@H](C)C(=O)N[C@@H](CO)C(=O)N[C@@H](CC(C)C)C(=O)N[C@@H](CC(C)C)C(=O)N[C@@H](CCCNC(=N)N)C(=O)N[C@H](C(=O)N[C@@H](CCC(N)=O)C(=O)N[C@@H](C)C(=O)N[C@@H](Cc1c[nH]cn1)C(=O)N[C@H](C(=O)N[C@@H](CCCNC(=N)N)C(=O)N[C@@H](CCCCN)C(=O)N[C@@H](CCCCN)C(=O)N[C@@H](CCSC)C(=O)N[C@H](C(=O)N[C@@H](Cc1ccc(O)cc1)C(N)=O)C(C)C)[C@@H](C)CC)C(C)C [4m] (H-C(Me)DAAC(Me)C(Me)KNIASLLRVQAHIRKKMVY-NH2; N-terminus and C-terminus assumed) |  | 11 | ellipticity ratio 222/208 nm ([1]; CD in 10% TFE/PBS, 25 °C): 0.73; % helicity ([1]; CD in 10% TFE/PBS, 25 °C): 35%; ellipticity ratio 222/208 nm ([1]; CD in PBS, 25 °C): 0.29; half-life [2]: < 1 h
10 | Ac-LDAAFLAAAKAAAAKAW-NH2 [LDFL] | 69 | 69 | 
11 | Ac-LDAALVAAAKAAAAKAW-NH2 [LDLV] | 70 | 70 | 
12 | Ac-VDAALLAAAKAAAAKAW-NH2 [VDLL] | 48 | 48 | 
13 | Ac-LDAAQLAAAKAAAAKAW-NH2 [LDQL] | 37 | 37 | 
14 | Ac-LDAALIAAAKAAAAKAW-NH2 [LDLI] | 52 | 52 | 
15 | Ac-LAAALLAAAKAAAAKAW-NH2 [LALL] | 45 | 45 | 
16 | C[C@H](NC(=O)[C@H](CCCCN)NC(=O)[C@H](C)NC(=O)[C@H](C)NC(=O)[C@H](C)NC(=O)[C@@H]1CSCc2cccc(c2)CSC[C@H](NC(=O)[C@@H](N)Cc2c[nH]c3ccccc23)C(=O)N[C@@H](CC(=O)O)C(=O)N[C@@H](C)C(=O)N[C@@H](C)C(=O)N[C@@H](C)C(=O)N1)C(N)=O (H-WCDAAACAAAKA-NH2; linker 2-7 via mXylylene) | 34 |  | 
17 | WCAAACCAAAKA (also: bicyclic or more (positions not given here)) [bicyclo-D/A 12-mer, bicyclo 12-mer with Asp Ncap replaced with Ala] |  |  | reduction of helicity on substitution of Asp Ncap by Ala ([1]; CD in PBS, relative to bicyclo 12-mer): 49%

Row | Compound | helicity (circular dichroism) [%] | % helicity [1, 4] [%] | other results
18 | Ac-LDAALFAAAKAAAAKAW-NH2 [LDLF] | 83 | 83 | 
19 | Ac-AAAAKAAAAKAW-NH2 [AAKA 12-mer] | 17 | 17 | ellipticity ratio 222/208 nm ([1]; CD in 10% TFE/PBS, 25 °C): 0.47; % helicity ([1]; CD in 10% TFE/PBS, 25 °C): 35%; ellipticity ratio 222/208 nm ([1]; CD in PBS, 25 °C): 0.26
20 | CSC[C@H](NC(=O)[C@H](C)NC(=O)[C@H](CCC(N)=O)NC(=O)[C@H](CC(=O)O)NC(=O)[C@@H](N)CSC)C(=O)N[C@@H](CSC)C(=O)N[C@@H](CC(C)C)C(=O)N[C@@H](CC(C)C)C(=O)N[C@@H](CCCNC(=N)N)C(=O)N[C@@H](C)C(=O)N[C@@H](CC(C)C)C(=O)N[C@@H](CC(=O)O)C(=O)N[C@@H](CCC(N)=O)C(=O)N[C@@H](Cc1ccc(O)cc1)C(N)=O [2m] (H-C(Me)DQAC(Me)C(Me)LLRALDQY-NH2; N-terminus and C-terminus assumed) | 10 | 10 | ellipticity ratio 222/208 nm ([1]; CD in 10% TFE/PBS, 25 °C): 0.44; % helicity ([1]; CD in 10% TFE/PBS, 25 °C): 24%; ellipticity ratio 222/208 nm ([1]; CD in PBS, 25 °C): 0.23
21 | Ac-LDAALLAAAKAAAAKAAAAKAW-NH2 [LDLL 22-mer] | 101 | 101 | 
22 | C[C@H](NC(=O)[C@H](CCCCN)NC(=O)[C@H](C)NC(=O)[C@H](C)NC(=O)[C@H](C)NC(=O)[C@@H]1CSCc2cc3cc(c2)CSC[C@H](NC(=O)[C@@H](N)Cc2c[nH]c4ccccc24)C(=O)N[C@@H](CC(=O)O)C(=O)N[C@@H](C)C(=O)N[C@@H](C)C(=O)N[C@@H](CSC3)C(=O)N1)C(N)=O [bicyclo 12-mer] |  | 59 | ellipticity ratio 222/208 nm ([1]; CD in 10% TFE/PBS, 25 °C): 1.21; % helicity ([1]; CD in 10% TFE/PBS, 25 °C): 72%; ellipticity ratio 222/208 nm ([1]; CD in PBS, 25 °C): 0.76; protection factors (H/D exchange) around the capping region ([3]; D2O/TFE-d3 (4:1), 33 °C, NMR 500 MHz): significantly higher than for the linear LDLL 12-mer
23 | Ac-QVARQLAEIY-NH2 [1l] | 16 | 16 | ellipticity ratio 222/208 nm ([1]; CD in 10% TFE/PBS, 25 °C): 0.64; % helicity ([1]; CD in 10% TFE/PBS, 25 °C): 20%; ellipticity ratio 222/208 nm ([1]; CD in PBS, 25 °C): 0.48
24 | Ac-ADAAAAAAAKAAAAKAW-NH2 [ADAA] | 55 | 55 | 
25 | Ac-LDAALAAAAKAAAAKAW-NH2 [LDLA] | 39 | 39 | 
26 | Ac-ADAALLAAAKAAAAKAW-NH2 [ADLL] | 45 | 45 | 
27 | Ac-LDAALLAAAKAW-NH2 | 28 |  | 
28 | Ac-LDAALLAAAKAW-NH2 [LDLL 12-mer] |  | 28 | ellipticity ratio 222/208 nm ([1]; CD in 10% TFE/PBS, 25 °C): 0.57; % helicity ([1]; CD in 10% TFE/PBS, 25 °C): 43%; ellipticity ratio 222/208 nm ([1]; CD in PBS, 25 °C): 0.39
29 | Ac-LDAATLAAAKAAAAKAW-NH2 [LDTL] | 63 | 63 | 
30 | C[C@H](NC(=O)[C@H](CCCCN)NC(=O)[C@H](C)NC(=O)[C@H](C)NC(=O)[C@H](C)NC(=O)[C@@H]1CSCc2cc3cc(c2)CSC[C@H](NC(=O)[C@@H](N)Cc2c[nH]c4ccccc24)C(=O)N[C@@H](CC(=O)O)C(=O)N[C@@H](C)C(=O)N[C@@H](C)C(=O)N[C@@H](CSC3)C(=O)N1)C(N)=O | 59 |  | 
31 | Ac-LDAALLAAAKAW-NH2 [LDLL-short] |  |  | H/D exchange experiment, per-residue value (Fig 5i) ([3]; resi ID 1): 0.3; H/D exchange experiment, per-residue value (Fig 5i) ([3]; resi ID 3): 1.3; H/D exchange experiment, per-residue value (Fig 5i) ([3]; resi ID 4): 1.66; H/D exchange experiment, per-residue value (Fig 5i) ([3]; resi ID 5): 1.96; H/D exchange experiment, per-residue value (Fig 5i) ([3]; resi ID 6): 1.83; H/D exchange experiment, per-residue value (Fig 5i) ([3]; resi ID 7): 1.96; H/D exchange experiment, per-residue value (Fig 5i) ([3]; resi ID 9): 2.2; H/D exchange experiment, per-residue value (Fig 5i) ([3]; resi ID 10): 1.69; H/D exchange experiment, per-residue value (Fig 5i) ([3]; resi ID 11): 1.68
32 | C[C@H](NC(=O)[C@H](CCCCN)NC(=O)[C@H](C)NC(=O)[C@H](C)NC(=O)[C@H](C)NC(=O)[C@@H]1CSCc2cc3cc(c2)CSC[C@H](NC(=O)[C@@H](N)Cc2c[nH]c4ccccc24)C(=O)N[C@@H](CC(=O)O)C(=O)N[C@@H](C)C(=O)N[C@@H](C)C(=O)N[C@@H](CSC3)C(=O)N1)C(N)=O [Bicyclo-short] |  |  | H/D exchange experiment, per-residue value (Fig 5i) ([3]; resi ID 3): 1.33; H/D exchange experiment, per-residue value (Fig 5i) ([3]; resi ID 4): 1.81; H/D exchange experiment, per-residue value (Fig 5i) ([3]; resi ID 5): 2.88; H/D exchange experiment, per-residue value (Fig 5i) ([3]; resi ID 6): 3.7; H/D exchange experiment, per-residue value (Fig 5i) ([3]; resi ID 7): 2.57; H/D exchange experiment, per-residue value (Fig 5i) ([3]; resi ID 8): 2.46; H/D exchange experiment, per-residue value (Fig 5i) ([3]; resi ID 9): 2.32; H/D exchange experiment, per-residue value (Fig 5i) ([3]; resi ID 10): 2.24
33 | Ac-LDAAALAAAKAAAAKAW-NH2 [LDAL] | 69 | 69 | 
34 | Ac-AAAAKAAAAKAAAAKAW-NH2 [AAKA] | 48 | 48 | 
